# In publication PMC6086659 (eLife, 2018):
# Molecular target: T1, GABAA receptor β1 subunit (α1β1γ2SEM tri-heteromer) (Rattus norvegicus, UniProt P15431+P62813, P15431:DEL334-439/P15431:INS334GT/P62813:DEL340-408)
# T1 construct: gene Gabrb1; purified α1β1γ2SEM receptor-Fab complex (M3/M4 loop deletions in α1 and β1; full-length γ2S); with GABAA receptor α1 subunit (Gabra1, P62813) and γ2S subunit (Gabrg2, P18508); 8E3 Fab
# Assay: radioligand saturation binding (scintillation proximity assay)
# T1 sequence (P15431 with tags, fused parts or gaps DEL334-439/INS334GT): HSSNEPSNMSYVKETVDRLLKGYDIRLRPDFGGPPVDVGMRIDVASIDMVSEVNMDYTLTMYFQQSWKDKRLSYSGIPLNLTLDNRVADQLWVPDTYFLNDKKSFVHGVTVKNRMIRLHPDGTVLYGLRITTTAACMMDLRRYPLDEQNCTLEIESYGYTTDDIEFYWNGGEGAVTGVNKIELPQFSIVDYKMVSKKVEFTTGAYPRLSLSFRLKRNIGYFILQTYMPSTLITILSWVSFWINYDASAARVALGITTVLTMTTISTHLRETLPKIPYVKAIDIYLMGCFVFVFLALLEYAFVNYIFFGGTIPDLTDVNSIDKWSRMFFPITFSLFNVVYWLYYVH
# T1 sequence (P62813 with tags, fused parts or gaps DEL340-408): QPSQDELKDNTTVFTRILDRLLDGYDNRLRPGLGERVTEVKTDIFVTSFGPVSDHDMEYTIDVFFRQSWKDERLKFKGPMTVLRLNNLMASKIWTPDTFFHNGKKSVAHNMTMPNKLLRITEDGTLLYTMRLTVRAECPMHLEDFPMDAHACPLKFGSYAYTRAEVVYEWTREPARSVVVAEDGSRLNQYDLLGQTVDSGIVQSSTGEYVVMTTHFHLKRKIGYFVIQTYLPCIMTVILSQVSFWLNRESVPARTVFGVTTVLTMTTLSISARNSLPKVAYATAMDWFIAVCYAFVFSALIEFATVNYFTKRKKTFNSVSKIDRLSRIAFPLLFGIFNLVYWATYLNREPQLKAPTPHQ
# T1 sequence (P18508 39-466 partner): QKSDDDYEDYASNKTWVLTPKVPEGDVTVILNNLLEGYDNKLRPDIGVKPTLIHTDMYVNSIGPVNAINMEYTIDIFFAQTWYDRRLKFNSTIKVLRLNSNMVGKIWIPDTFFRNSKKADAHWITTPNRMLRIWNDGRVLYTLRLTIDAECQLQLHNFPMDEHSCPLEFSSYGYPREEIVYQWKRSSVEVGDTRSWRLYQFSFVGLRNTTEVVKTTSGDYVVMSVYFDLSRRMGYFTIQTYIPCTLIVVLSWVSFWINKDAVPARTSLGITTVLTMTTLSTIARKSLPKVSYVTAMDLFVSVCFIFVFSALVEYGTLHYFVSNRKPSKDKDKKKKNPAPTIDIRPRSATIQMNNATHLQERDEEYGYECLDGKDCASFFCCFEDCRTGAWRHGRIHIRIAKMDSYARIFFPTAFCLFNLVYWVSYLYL
smiles,measurement,value
NCc1cc(=O)[nH]o1 [muscimol],Kd,109 nM
